Experimental data taken from patent publication US20040259875A1, “Amine derivatives” (priority 2001, published 2004).

melting point | Structure (SMILES)
290 to 291 °C (dec.) | O=C(Nc1ccc2c(c1)C(=O)OC2)Nc1c(Cl)cc(Cl)c2ccc(O)cc12 [Example 4-35]
234 °C (dec.) | Cc1ccc(-c2cccc(NC(=O)Nc3c(Cl)cc(Cl)c4ccc(O)cc34)c2)cc1Cl [Example 4-18]
207.5 °C | CC(C)c1ccc(NC(=O)Nc2cccc3cc(O)ccc23)cc1 [Example 1-139]
244 °C (dec.) | O=C(Nc1ccc(F)c(F)c1)Nc1c(Cl)cc(Cl)c2ccc(O)cc12 [Example 4-38]
241 °C (dec.) | O=C(Nc1cccc(-c2ccc(Cl)c(F)c2)c1)Nc1c(Cl)cc(Cl)c2ccc(O)cc12 [Example 4-19]
> 300 °C | O=C(Nc1ccc2c(c1)CCC2)Nc1c(Cl)cc(Cl)c2ccc(O)cc12 [Example 4-32]
162 °C | O=C(Cc1cccc2ccc(O)cc12)Nc1ccc(Cl)c(C(F)(F)F)c1 [Example 11-1, N-[4-Chloro-3-(trifluoromethyl)phenyl]-2-(7-hydroxy-1-naphthyl)acetamide]
211 °C | O=C(Nc1ccc(Cl)c(C(F)(F)F)c1)Nc1ccc(Br)c2ccc(O)cc12 [Example 1-72]
258 to 259 °C | CNc1ccc2ccc(Cl)c(NC(=O)Nc3ccc(Cl)c(C(F)(F)F)c3)c2c1 [Example 1-77]
241 to 242 °C | CC(=O)Nc1ccc2cccc(NC(=O)Nc3ccc(Cl)c(C(F)(F)F)c3)c2c1 [Example 9-1, N-{8-[({[4-Chloro-3-(trifluoromethyl)phenyl]amino}carbonyl)amino]-2-naphthyl}acetamide]

More lines, now with the values behind:

Structure (SMILES) | melting point
CCN(CC)c1ccc(NC(=O)Nc2c(Cl)ccc3ccc(O)cc23)cc1 [Example 1-35] | 199.8 to 200.5 °C
O=C(NCc1ccc(Br)cc1)Nc1cccc2ccc([O-])c(F)c12.[K+] | 185 °C
COc1ccc(CNC(=O)Nc2c(Cl)cc(Cl)c3ccc(O)cc23)cc1 [Example 1-31] | 223 to 226 °C
CCOC(=O)c1ccc(NC(=O)Nc2c(Cl)cc(Cl)c3ccc(O)cc23)cc1 [Example 1-13] | 258 to 260 °C
O=C(Nc1ccc(Cl)c(C(F)(F)F)c1)Nc1c(Cl)cc(Cl)c2ccc([O-])cc12.[K+] | 150 °C (dec.)
O=C(Nc1ccc(Cl)c(C(F)(F)F)c1)Nc1cccc2ccc(O)c(F)c12 [Example 1-34] | 228 °C
O=C(Nc1ccc2ccccc2c1)Nc1cccc2ccc(O)c(F)c12 [Example 1-53] | 189 °C
Cc1cc(NC(=O)Nc2c(Cl)cc(Cl)c3ccc([O-])cc23)ccc1Cl.[K+] | 190 °C
O=C(NCc1ccc(Br)cc1)Nc1cccc2ccc(O)cc12 [Example 1-71] | 210 °C
